SMILES strings stand for the structures.

The target in the test is Stromelysin-1 (Homo sapiens, UniProt P08254). Put plainly: Inhibition of matrix metalloprotease-3.
Sequence of Stromelysin-1 (P08254 whole entry): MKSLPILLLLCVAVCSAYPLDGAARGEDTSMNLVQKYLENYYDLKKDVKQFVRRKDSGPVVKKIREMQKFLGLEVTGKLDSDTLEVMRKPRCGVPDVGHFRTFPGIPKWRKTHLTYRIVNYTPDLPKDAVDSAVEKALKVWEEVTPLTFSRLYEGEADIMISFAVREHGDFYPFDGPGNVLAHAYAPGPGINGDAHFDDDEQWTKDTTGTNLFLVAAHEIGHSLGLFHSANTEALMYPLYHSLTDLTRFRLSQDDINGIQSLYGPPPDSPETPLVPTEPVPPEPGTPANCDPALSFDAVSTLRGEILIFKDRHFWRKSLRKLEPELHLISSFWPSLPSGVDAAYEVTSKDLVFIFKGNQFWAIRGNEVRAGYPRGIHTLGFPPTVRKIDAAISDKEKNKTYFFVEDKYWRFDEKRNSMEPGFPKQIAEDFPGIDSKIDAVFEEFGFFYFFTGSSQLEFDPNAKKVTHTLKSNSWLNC
One may read the IC50 as the concentration at which inhibition is half-maximal. With `CCCCCCC(N[C@@H](CCc1ccccc1)C(=O)N[C@@H](CCCN=C(N)N)C(=O)N[C@@H](CC(C)C)C(=O)OC)C(=O)O` (stereo not given in full), the 50% inhibitory concentration (IC50) is 400 nM.
The same measure for `CCCCCCC(N[C@@H](CCc1ccccc1)C(=O)N[C@@H](CCCN=C(N)N)C(=O)N[C@@H](Cc1cc2ccccc2[nH]1)C(=O)OC)C(=O)O` (stereo not given in full): 900 nM; for `CCCCCCC(N[C@@H](CCc1ccccc1)C(=O)N[C@@H](CCCN=C(N)N)C(=O)N[C@@H](CCCC)C(=O)OC)C(=O)O` (stereo not given in full): 900 nM.
Then `CCCCCCC(N[C@@H](CCc1ccccc1)C(=O)N[C@@H](CCCN=C(N)N)C(=O)N[C@@H](CCc1ccccc1)C(=O)OC)C(=O)O` (stereo not given in full), with 800 nM.
Consider `CCCCCCC(N[C@@H](CCc1ccccc1)C(=O)N[C@@H](CCCN=C(N)N)C(=O)N[C@@H](CCC(N)=O)C(=O)OC)C(=O)O` (stereo not given in full), for which the IC50 turned out to be 900 nM.

The record behind these values is ChEMBL document CHEMBL1130578, “Solid-phase synthesis of a N-carboxyalkyl tripeptide combinatorial library” (Bioorg Med Chem Lett, 1997).
